Patent publication US8486991B2, “Enantiomerically pure phosphoindoles as HIV inhibitors” (Idenix Pharmaceuticals, Inc., priority 2006, dated 2013)
Entries after “also recorded” stand apart in the source; their conditions may differ. Read-outs that look alike come from different tables or passages of the source.

How the values were obtained:
[1] = molecular target: CYP2D6 (Homo sapiens, UniProt P10635); test: Human liver microsomal CYP450 inhibition, CYP2D6; settings: for IC50, CYP2D6: human liver microsomes
Description: In addition, the type of inhibition was also evaluated.
Enzyme kinetic studies of cytochrome P450 isozyme inhibition were conducted using human liver microsomes.

[2] = system: stimulated human primary blood mononuclear cells (PBMC); test: in vitro; settings: 3 days
Description: Cell viability was determined via MTT staining.

[3] = molecular target: T1, CYP1A2 (Homo sapiens, UniProt P05177); test: Recombinant CYP450 inhibition, fluorometric, CYP1A2; format: in vitro ADME; design: from tissue; host or cells: pooled human liver microsomes
T1 sequence (P05177 1-516): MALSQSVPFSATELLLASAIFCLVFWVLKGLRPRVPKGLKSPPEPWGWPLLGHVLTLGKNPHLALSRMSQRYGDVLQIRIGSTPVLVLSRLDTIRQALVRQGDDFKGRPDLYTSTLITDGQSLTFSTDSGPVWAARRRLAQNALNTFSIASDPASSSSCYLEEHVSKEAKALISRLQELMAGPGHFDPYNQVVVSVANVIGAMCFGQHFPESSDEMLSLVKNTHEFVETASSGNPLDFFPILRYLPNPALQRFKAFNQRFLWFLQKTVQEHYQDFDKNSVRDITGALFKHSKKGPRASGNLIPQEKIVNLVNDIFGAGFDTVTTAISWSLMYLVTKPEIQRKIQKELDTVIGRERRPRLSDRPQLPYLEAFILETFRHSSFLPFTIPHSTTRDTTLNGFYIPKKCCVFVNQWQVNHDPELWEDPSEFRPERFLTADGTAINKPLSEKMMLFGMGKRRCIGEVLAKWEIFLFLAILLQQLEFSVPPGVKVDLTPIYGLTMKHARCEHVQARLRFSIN
Description: Compounds were assayed using recombinant human microsomal proteins with fluorometric substrates. Signal was measured with a Fusion plate reader utilizing the appropriate excitation and emission wavelength set to detect the specific metabolite: […]

[4] = system: HIV-1 RT K103N mutant enzyme; format: biochemical; settings: Table 2; mutant vs wild-type
Source text: In Vitro Antiviral Activity Against Additional Mutant HIV RT Enzymes

[5] = system: CYP1A2 (activation of AhR in CYP1A2-DRE cells); test: CYP1A2 induction screen in CYP1A2-DRE cells; format: cell-based, human; settings: extent compared with TCDD, omeprazole, 2-acetylaminofluorene
Source text: The potential for in vitro induction of CYP3A4 was screened in DPX2 cells. The DPX2 cell line is a derivative of a human hepatocellular carcinoma cell line (HepG2) transformed with the human pregnane x receptor (PXR) and a reporter gene vector containing the enhancer region of CYP3A4. The potential for in vitro induction of CYP1A2 was screened in CYP1A2-DRE cells. The CYP1A2-DRE cell line is a stably transformed HepG2 cells with dioxin response elements (DRE) and reporter gene containing CYP1A2 promoter elements. The extent of CYP3A4 induction was determined by comparing the activation of PXR obtained with test article to that obtained with rifampicine (potent inducer), mifepristone (moderate inducer) and androstanol (weak inducer). The extent of CYP1A2 induction was determined by comparing the activation of the aryl hydrocarbon receptor (AhR) obtained with test article to that obtained with TCDD (potent inducer), omeprazole (moderate inducer), and 2-acetylaminofluorene (weak inducer).

[6] = In vivo pharmacokinetics, rats; design: species or system rat; settings: plasma
Description: All animals received a single oral or intravenous dose of compound in either polyethylene glycol 400 (PEG400) or a mixture of 10% ethanol (EtOH), 10% dimethylacetamine (DMA) and 80% PEG400 at the indicated dose level. Plasma concentration data were acquired using sensitive and specific LC-MS/MS methods. Pharmacokinetic data from the toxicity study included aspects of gender differences, variability and exposure.
Blood samples (1.5-2.5 mL) were collected in heparinized tubes at 0 (pre-dose), 5 (IV only), 10, 20, 30 min, 1, 2, 4, 6, 8, 12 (PO only) and 24 hr after dosing. Plasma was separated and stored at −70° C. until analysis.
Concentrations of unlabeled compound I and compound III within plasma samples and excreta from rat, dog and monkey PK studies were identified through high performance liquid chromatographic (HPLC) methods that incorporated tandem mass spectrometric detection (LC-MS/MS).
The absolute oral bioavailability was determined in pharmacokinetic by comparison of AUC values of parent compound following single intravenous and oral doses of in rats (compound III only), dogs and monkeys.

Chain of CYP2D6 (P10635 whole entry): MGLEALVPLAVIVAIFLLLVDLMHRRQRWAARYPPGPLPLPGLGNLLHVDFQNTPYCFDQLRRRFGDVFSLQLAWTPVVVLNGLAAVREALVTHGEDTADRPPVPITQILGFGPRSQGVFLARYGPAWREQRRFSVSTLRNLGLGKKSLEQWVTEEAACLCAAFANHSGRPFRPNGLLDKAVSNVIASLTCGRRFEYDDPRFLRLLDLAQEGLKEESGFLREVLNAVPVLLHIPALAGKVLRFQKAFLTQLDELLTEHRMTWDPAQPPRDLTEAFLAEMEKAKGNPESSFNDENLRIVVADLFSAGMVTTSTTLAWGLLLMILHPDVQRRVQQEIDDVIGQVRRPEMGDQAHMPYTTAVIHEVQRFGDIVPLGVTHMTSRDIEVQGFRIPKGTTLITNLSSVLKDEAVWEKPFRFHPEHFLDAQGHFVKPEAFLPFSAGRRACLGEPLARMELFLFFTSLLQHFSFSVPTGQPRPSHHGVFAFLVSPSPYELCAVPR

SMILES | IC50 [1] [µM] | IC50, CYP2D6 [1] | SI values from cytotoxicity and activity data in PBMC [2] | inhibition at 20 µM ([3]; human, recombinant enzyme, 20 μM, read-out: percentage of inhibition at the highest concentration tested, CYP1A2) [%] | Fold Change, K103N [4] [fold] | Induction, CYP1A2-DRE (CYP1A2) [5] | IC50 ([3]; highest concentration tested 20 μM) [µM] | Tmax ([6]; male, Rat, 10 mg/kg PO-Fasted, 3M, mean) [min] | bioavailability ([6]; male, Rat, 10 mg/kg PO-Fasted, 3M, IV 2 mg/kg, read-out: BA (absolute oral bioavailability)) [%] | bioavailability ([6]; rat, po, text b979, (5 mg/kg), read-out: oral bioavailability in rats, exploratory PK studies) [%]
CO[P@](=O)(c1cc(C)cc(/C=C/C#N)c1)c1c(C(N)=O)[nH]c2ccc(Cl)c(F)c12 [Compound I, (2-Carbamoyl-5-chloro-4-fluoro-1H-indol-3-yl)-[3-((E)-2-cyano-vinyl)-5-methyl-phenyl]-(R)-phosphinic acid methyl ester] | > 20 | not observed | > 100,000 | 17.5 | 3.2 ± 3.5 | – | – | – | – | –
CO[P@](=O)(c1cc(C)cc(/C=C/C#N)c1)c1c(C(N)=O)[nH]c2ccc(Cl)cc12 [Compound III, (2-Carbamoyl-5-chloro-1H-indol-3-yl)-[3-((E)-2-cyano-vinyl)-5-methyl-phenyl]-(R)-phosphinic acid methyl ester] | > 20 | not observed | – | – | – | moderate inducers; also recorded: Not inducer (n = 1) | 17.6 ± 2.06 | 24 | 38 | 38
